Laboratory results taken from patent US12398093B2, “Compounds and methods for treating inflammatory disorders” (Board of Supervisors of Louisiana State University and …, priority 2019, dated 2025).
Read-outs that look alike come from different tables or passages of the source.

What was measured:
[1] = In vitro absorption, Caco-2 permeability; type: in vitro ADME; conditions: human, Caco-2, pH 6.5, Caco-2, pH 6.5/7.4, 1.0×10^−5 M
5-HT2AR-Tango construct = target: T1, 5-HT2AR-Tango construct (Homo sapiens, UniProt P28223); test: β-arrestin-2 recruitment, PRESTO-Tango assay in HTLA cells; type: cell-based; conditions: for Emax: HTLA
T1 construct: expressed in transfected cells; host or cells: HTLA cells (transient transfection)
T1 sequence (P28223 whole entry, added parts left off): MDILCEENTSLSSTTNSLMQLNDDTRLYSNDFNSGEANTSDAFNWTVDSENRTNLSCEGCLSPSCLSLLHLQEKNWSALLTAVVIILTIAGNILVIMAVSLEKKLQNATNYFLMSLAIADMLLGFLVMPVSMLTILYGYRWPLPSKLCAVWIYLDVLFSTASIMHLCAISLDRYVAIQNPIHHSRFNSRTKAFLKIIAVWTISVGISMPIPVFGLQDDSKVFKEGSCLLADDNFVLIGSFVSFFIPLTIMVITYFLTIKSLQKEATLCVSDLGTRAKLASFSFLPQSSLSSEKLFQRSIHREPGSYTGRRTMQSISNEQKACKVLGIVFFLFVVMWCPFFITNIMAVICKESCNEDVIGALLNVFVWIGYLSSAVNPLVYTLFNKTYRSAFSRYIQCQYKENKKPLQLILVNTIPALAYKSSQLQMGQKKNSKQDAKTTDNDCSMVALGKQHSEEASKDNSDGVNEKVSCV
T1 sequence (P32121 whole entry partner): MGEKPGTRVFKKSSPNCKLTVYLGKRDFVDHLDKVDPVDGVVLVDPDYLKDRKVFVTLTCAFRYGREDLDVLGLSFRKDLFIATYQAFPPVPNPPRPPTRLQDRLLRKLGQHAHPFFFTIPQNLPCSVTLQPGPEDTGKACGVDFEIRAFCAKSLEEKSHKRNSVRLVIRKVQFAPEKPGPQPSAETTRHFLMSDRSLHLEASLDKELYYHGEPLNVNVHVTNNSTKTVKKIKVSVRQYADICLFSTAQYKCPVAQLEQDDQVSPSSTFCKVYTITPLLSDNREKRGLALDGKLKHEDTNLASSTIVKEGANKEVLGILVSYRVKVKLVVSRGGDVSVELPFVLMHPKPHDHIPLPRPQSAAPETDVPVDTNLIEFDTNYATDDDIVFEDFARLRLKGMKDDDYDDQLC

[2] = system: adult male Brown Norway rats; test: Ovalbumin allergic asthma model, whole body plethysmography (ΔPenh) after methacholine challenge; type: in vivo; conditions: for Prevention of AHR (ΔPenh/PenH) in response to OVA: rats
From the text: A modification of the ovalbumin model of allergic asthma and whole body plethysmography protocol as described in Nau et al. (Am. J. Physiol. Lung Cell Mol. Physiol. 2015, 308(2): L191-L198; incorporated herein by reference) was used to determine ΔPenh, a measure of airways hyperresponsiveness (AHR), in response to methacholine challenge in adult male Brown Norway rats. Results, shown in FIGS. 2A-2G, represent PenH change measured in the ovalbumin allergic asthma assay in rats, with the exception of FIG. 2C, which was measured in mice, for nebulized inhaled drug. Statistics were performed using 2-way ANOVA with Tukey post hoc test for multiple comparisons.
Allergic asthma is defined as a chronic inflammatory disorder of the airways. This disease is characterized by airway inflammation, persistent airways AHR and intermittent, reversible airways obstruction.
Area under the curve of PenH values (PenH-AUC) in response to incremental doses of metacholine were calculated for each testing groups, naïve, OVA treated, and OVA+DRUG treated animals. A reduction in PenH-AUC values of more than 75% of the control values (OVA alone) was annotated as a strong efficacy. […] Additional to this information are provided the relative to R-DOI EC50 values (ratio) of tested compounds in 5-HT2AR heterologous cell-based calcium transient assay. […] FIG. 3 illustrates the non-correlative nature of the therapeutic efficacy of the phenylethylamines class of compounds against inflammatory-mediated allergen-induced AHR and the reported evidences of the dose necessary for psychoactive disturbances experienced with these compounds in humans or the potency and strength of these compounds to the 5-HT2AR in calcium transients assays.
Inhibition of ΔPenh as a function of 2C-iBu concentration was studied by nebulization nose-only administration of 2C-iBu to male adult Brown Norway rats as described above. Area under the curve for each treatment group at a given dose of 2C-iBu for ΔPenh is plotted on the Y-axis versus concentration of 2C-iBu on the X-axis.

[3] = log D at physiological pH; type: physicochemical; conditions: pH 7.4
From the text: This differential in the physico-chemical properties could be one of the drivers in the observed increased plasma protein binding capability of 2Ci-Bu in comparison to R-DOI and the moderate changes in the Caco-2 A-B/B-A permeability profiles.

5-HT2C (h) = target: T2, 5-HT2C (h) (Homo sapiens, UniProt P28335); test: Radioligand binding, agonist radioligand [125I](±)DOI
T2 sequence (P28335 33-458): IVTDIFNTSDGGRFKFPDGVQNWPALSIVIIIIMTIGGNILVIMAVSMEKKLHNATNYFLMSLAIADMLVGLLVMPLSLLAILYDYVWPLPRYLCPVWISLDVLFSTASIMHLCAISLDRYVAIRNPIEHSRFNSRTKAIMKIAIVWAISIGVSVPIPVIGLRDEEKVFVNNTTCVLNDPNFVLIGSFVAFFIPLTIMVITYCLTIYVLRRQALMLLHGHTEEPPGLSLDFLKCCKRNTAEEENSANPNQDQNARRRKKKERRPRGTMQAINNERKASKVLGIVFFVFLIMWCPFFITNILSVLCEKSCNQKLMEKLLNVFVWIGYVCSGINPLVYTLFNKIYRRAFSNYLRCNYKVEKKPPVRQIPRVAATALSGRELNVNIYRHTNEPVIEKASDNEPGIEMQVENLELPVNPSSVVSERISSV

5-HTB = 5-HTB (Rattus norvegicus, UniProt P28564); test: Radioligand binding, antagonist radioligand [125I]CYP
Chain of 5-HTB (P28564 whole entry): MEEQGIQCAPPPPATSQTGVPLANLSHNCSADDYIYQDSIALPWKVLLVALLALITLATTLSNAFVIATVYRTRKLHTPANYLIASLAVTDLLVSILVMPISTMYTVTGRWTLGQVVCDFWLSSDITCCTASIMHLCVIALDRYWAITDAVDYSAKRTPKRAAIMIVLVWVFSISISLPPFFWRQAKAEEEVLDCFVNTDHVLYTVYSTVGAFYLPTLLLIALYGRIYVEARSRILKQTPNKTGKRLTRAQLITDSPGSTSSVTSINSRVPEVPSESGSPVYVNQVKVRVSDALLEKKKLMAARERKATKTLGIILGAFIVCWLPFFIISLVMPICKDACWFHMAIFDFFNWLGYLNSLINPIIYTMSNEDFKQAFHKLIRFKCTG

[4] = In vitro protein binding in human plasma; type: in vitro ADME; conditions: 1.0×10^−5 M; for % Protein bound, 1st / % Protein bound, 2nd / % Protein bound, Mean: human plasma; for recovery: human, plasma, protein binding assay
[5] = read-out: A-B Permeability, 1st
[6] = read-out: A-B Permeability, 2nd
[7] = read-out: A-B Permeability, Mean
[8] = read-out: B-A Permeability, 1st
[9] = read-out: B-A Permeability, 2nd
[10] = read-out: B-A Permeability, Mean
[11] = read-out: EMAX (%) beta arrestin recruitment

| SMILES | recovery ([1]; read-out: % Recovery A-B, 1st) [%] | recovery ([1]; read-out: % Recovery A-B, 2nd) [%] | recovery ([1]; read-out: % Recovery A-B, Mean) [%] | recovery ([1]; read-out: % Recovery B-A, 1st) [%] | recovery ([1]; read-out: % Recovery B-A, 2nd) [%] | recovery ([1]; read-out: % Recovery B-A, Mean) [%] | Papp A→B [1, 5] [×10⁻⁶ cm/s] | Papp A→B [1, 6] [×10⁻⁶ cm/s] | Papp A→B [1, 7] [×10⁻⁶ cm/s] | Papp B→A [1, 8] [×10⁻⁶ cm/s] | Papp B→A [1, 9] [×10⁻⁶ cm/s] | Papp B→A [1, 10] [×10⁻⁶ cm/s] | Emax (5-HT2AR-Tango construct; [11]) [%] | logD [3] | Ki (5-HT2C (h)) [nM] | Ki (5-HTB) [nM] | % Protein bound, 1st [4] [%] | % Protein bound, 2nd [4] [%] | % Protein bound, Mean [4] [%] | recovery ([4]; read-out: % Recovery, 1st) [%] | other results |
| --- | --- | --- | --- | --- | --- | --- | --- | --- | --- | --- | --- | --- | --- | --- | --- | --- | --- | --- | --- | --- | --- |
| COc1cc(C[C@@H](C)N)c(OC)cc1I [R-DOI] | 72 | 72 | 72 | 87 | 88 | 87 | 23.7 | 23.2 | 23.4 | 19.1 | 19.3 | 19.2 | 71.8 | 1.04 | 0.631 | 2510 | 47.5 | 49.6 | 49 | 126 | Prevention of AHR (ΔPenh/PenH) in response to OVA ([2]; 1.0 mg/kg, nebulized inhaled drug): full efficacy at preventing AHR; recovery ([4]; read-out: % Recovery, 2nd): 126%; recovery ([4]; read-out: % Recovery, Mean): 126% |
| COc1cc(CC(C)C)c(OC)cc1CCN [2C-iBu, 2,5-dimethoxy-4-isobutylphenethylamine] | 45 | 48 | 46 | 70 | 72 | 71 | 10.9 | 10.6 | 10.7 | 7.87 | 7.92 | 7.9 | 57.4 | 1.64 | 0.251 | 50.1 | 73.7 | 74.5 | 74 | 107 | EC50 (5-HT2AR-Tango construct): 13.5 nM; Emax (5-HT2AR-Tango construct; Table 3, read-out: EMAX β-arrestin-2): 77%; ED50 ([2]; Rattus norvegicus, nebulization nose-only administration, rats (FIG. 4), read-out: ED50, inhibition of ΔPenh (AUC)): 2.7 µg/kg; Prevention of AHR (ΔPenh/PenH) in response to OVA ([2]; dose not printed (FIG. 2G)): did not result in a decrease in efficacy compared to (R)-DOI; recovery ([4]; read-out: % Recovery, 2nd): 105%; recovery ([4]; read-out: % Recovery, Mean): 106% |
